Laboratory results as given in publication PMC4686831, “Identification of an allosteric binding site for RORγt inhibition” (Nature Communications, 2015).
Like-named read-outs stand apart in the source and are kept apart here.

Columns and labels:
[1] = target: T1, human RORγt LBD (Homo sapiens, UniProt P51449); assay: HTRF / TR-FRET cofactor peptide recruitment assay; type: biochemical; conditions: Fig. 2a
T1 construct: The human RORγt LBD used for the HTRF assay; made in house; host or cells: Escherichia coli BL21(DE3)
Procedure: The human RORγt LBD used for the HTRF assay was expressed as a His6-tag fusion protein from the pET15b expression vector in Escherichia coli BL21(DE3) cells. Cells transformed with this vector were grown in 2 × YT medium supplemented with ampicillin until an OD600=0.7 was reached. Protein expression was then induced with 0.1 mM isopropyl-b-d-thiogalactoside (IPTG). After incubation for 16 h at 16 °C, cell cultures were collected by centrifugation. The cells were lysed via sonication and the protein was purified via Ni^2+-affinity column chromatography.
The homogeneous TR-FRET assays were performed in triplicate with 20 nM His6-RORγt and 100 nM biotin labelled cofactor peptide. […] Assay buffer contained 100 mM HEPES (pH 7.5), 100 mM NaCl, 5 mM dithiothreitol (DTT) and 0.1% bovine serum albumin. The plates (white 384-well plates Greiner Bio-One) were incubated for 2 h at 4 °C before the FRET ratio was measured in a Tecan Infinite F500 plate reader. The data were analysed using Origin software.

[2] = system: Human mesenchymal stem cells (MSCs); assay: Adipogenesis of human mesenchymal stem cells (PPARγ dependent); conditions: read-out: IC50, inhibition of adipogenesis
[3] = system: adiponectin gene expression; assay: Adiponectin gene expression in MSCs; conditions: read-out: IC50, inhibition of adiponectin gene expression
[4] = system: IL17a mRNA expression in EL4 cells; assay: Quantitative IL17a RT-PCR in EL4 cells; type: cell-based, mouse; conditions: 10 μM, 24 h, vs DMSO, normalized to GAPDH
Procedure: EL4 cells (Sigma-Aldrich) were grown in DMEM (Gibco). At 24 h after the cells were seeded onto a 12-well plate, the cells were treated with ligands 1–3 (from 10 mM stock in DMSO) or DMSO. After 24 h, the cells were collected and RNA was isolated using a RNeasy Plus Micro Kit (Qiagen) and reverse transcribed using the iScrip cDNA biosynthesis kit (Bio-Rad). Quantitative RT–PCR was performed to analyse mRNA levels of mouse IL17a levels using SYBR green technology (Bio-Rad) on a CFX Real-Time System (Bio-Rad). Primer sequences used for IL17a:[45] Fw: 5′-[…]-3′, Rev: 5′-[…]-3′ and Gapdh: Fw: 5′-[…]-3′, Rev: 5′-[…]-3′. The level of IL17a mRNA expression was normalized to that of Gapdh expression. All data are expressed as the mean±s.e.m. (n=6). Statistical analysis was performed using an one-way analysis of variance comparing against the DMSO control following Dunnett post hoc test.

[5] = system: IL-17 production in human PBMCs; assay: PBMC Th17 polarization and IL-17 production assay; type: cell-based; conditions: 96 h, 4 days, mean±s.d., read-out: hPBMC IL17A IC50
Procedure: Test compounds were prepared as 10 mM stocks in DMSO and serially diluted 1:3 to provide an eight-concentration titration. […] Stimulatory cytokines were added to final concentrations of 25 ng ml^−1 IL-1B, 10 ng ml^−1 IL-23, 0.5 ng ml^−1 IL-2 and 10 ng ml^−1 IL-6 (all cytokines from R&D Systems). In addition, T-Activator CD3/28 Dynabeads (Invitrogen) were added to a concentration of 100,000 beads per ml. The stimulated cells were immediately dispensed into the assay plate containing serially diluted compound at a volume of 200 μl cells per well. Cell plates were then incubated at 37 °C and 5% CO2 for 4 days. Culture media (100 μl) was collected from each well and IL-17 expression was measured by enzyme-linked immunosorbent assay (R&D Systems) according to the manufacturer's instructions. Cell viability was assessed by the addition of 100 μl of CellTiter-Glo (Promega) to each well of the cell assay plate followed by luminescence detection on an Envision plate reader (PerkinElmer).

[6] = target: T2, RARg (Homo sapiens, UniProt P13631); assay: Receptor reporter assay selectivity panel: RARg
T2 sequence (P13631 185-419 limits assumed): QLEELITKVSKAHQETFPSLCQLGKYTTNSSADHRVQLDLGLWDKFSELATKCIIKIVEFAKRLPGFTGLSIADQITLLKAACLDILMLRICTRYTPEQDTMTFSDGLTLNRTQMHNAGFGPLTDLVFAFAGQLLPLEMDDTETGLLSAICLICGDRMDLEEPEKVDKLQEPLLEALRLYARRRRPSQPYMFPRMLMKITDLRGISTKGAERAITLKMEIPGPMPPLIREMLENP
Procedure: (§1) * Receptor Reporter Assay Selectivity Panel- Assays were performed by Indigo Bioscience (State
(§2) College, PA) according to their established protocols. The AR, ER, GR, MR, and PR assays utilize full
(§3) length receptor constructs whereas all others are chimeric with the GAL4 DNA binding domain.

[7] = target: RXRg (Homo sapiens, UniProt P48443); assay: Receptor reporter assay selectivity panel: RXRg
Procedure: as §1, §2, §3

[8] = target: TRa (Homo sapiens, UniProt P10827); assay: Receptor reporter assay selectivity panel: TRa
Procedure: as §1, §2, §3

[9] = target: VDR (Homo sapiens, UniProt P11473); assay: Receptor reporter assay selectivity panel: VDR
Sequence of VDR (P11473 127-427 limits assumed): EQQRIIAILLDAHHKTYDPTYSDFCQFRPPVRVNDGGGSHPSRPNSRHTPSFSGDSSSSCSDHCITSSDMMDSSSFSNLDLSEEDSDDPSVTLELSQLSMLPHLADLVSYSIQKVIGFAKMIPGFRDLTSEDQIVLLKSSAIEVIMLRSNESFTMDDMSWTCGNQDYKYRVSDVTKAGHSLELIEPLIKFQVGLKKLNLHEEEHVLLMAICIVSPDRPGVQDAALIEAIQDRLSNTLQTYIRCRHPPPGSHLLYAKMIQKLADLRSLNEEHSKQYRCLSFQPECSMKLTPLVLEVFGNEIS
Procedure: as §1, §2, §3

[10] = target: FXR (Homo sapiens, UniProt Q96RI1); assay: Receptor reporter assay selectivity panel: FXR
Sequence of FXR (Q96RI1 262-486 limits assumed): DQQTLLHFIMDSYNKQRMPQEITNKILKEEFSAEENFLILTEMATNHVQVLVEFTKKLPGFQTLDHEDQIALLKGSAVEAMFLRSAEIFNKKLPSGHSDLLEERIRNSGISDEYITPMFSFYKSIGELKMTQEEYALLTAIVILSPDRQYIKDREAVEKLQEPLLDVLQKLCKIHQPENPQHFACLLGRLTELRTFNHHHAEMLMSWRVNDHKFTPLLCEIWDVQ
Procedure: as §1, §2, §3

[11] = target: MR (Homo sapiens, UniProt P08235); assay: Receptor reporter assay selectivity panel: MR
Procedure: as §1, §2, §3

[12] = target: RARb (Homo sapiens, UniProt P10826); assay: Receptor reporter assay selectivity panel: RARb
Sequence of RARb (P10826 183-417 limits assumed): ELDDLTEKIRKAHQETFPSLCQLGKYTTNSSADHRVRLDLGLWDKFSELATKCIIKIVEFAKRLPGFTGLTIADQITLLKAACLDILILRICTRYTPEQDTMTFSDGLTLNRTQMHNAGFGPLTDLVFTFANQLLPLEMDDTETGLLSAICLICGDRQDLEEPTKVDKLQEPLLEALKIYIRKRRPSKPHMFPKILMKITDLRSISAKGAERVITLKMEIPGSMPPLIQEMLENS
Procedure: as §1, §2, §3

[13] = target: PPARa (Homo sapiens, UniProt Q07869); assay: Receptor reporter assay selectivity panel: PPARa
Procedure: as §1, §2, §3

[14] = target: ERa (Homo sapiens, UniProt P03372); assay: Receptor reporter assay selectivity panel: ERa
Procedure: as §1, §2, §3

[15] = target: TRb (Homo sapiens, UniProt P10828); assay: Receptor reporter assay selectivity panel: TRb
Sequence of TRb (P10828 217-461 limits assumed): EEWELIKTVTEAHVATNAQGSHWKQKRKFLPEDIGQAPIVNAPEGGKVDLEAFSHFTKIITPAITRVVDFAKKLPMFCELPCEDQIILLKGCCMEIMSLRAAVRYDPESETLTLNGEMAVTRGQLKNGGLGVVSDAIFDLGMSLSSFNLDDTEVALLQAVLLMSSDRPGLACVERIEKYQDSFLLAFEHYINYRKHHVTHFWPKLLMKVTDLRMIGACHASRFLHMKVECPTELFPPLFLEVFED
Procedure: as §1, §2, §3

[16] = target: PPARg (Homo sapiens, UniProt P37231); assay: Receptor reporter assay selectivity panel: PPARg
Sequence of PPARg (P37231 232-505 limits assumed): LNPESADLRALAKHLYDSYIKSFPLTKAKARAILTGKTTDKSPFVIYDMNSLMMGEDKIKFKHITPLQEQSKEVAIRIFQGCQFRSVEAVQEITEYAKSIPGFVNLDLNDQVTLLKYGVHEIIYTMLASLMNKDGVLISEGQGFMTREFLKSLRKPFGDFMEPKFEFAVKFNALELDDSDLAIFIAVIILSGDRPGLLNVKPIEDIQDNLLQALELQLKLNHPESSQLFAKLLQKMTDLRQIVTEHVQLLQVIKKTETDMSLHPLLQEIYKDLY
Procedure: as §1, §2, §3

[17] = target: CAR2 (Homo sapiens, UniProt Q14994); assay: Receptor reporter assay selectivity panel: CAR2
Procedure: as §1, §2, §3

[18] = system: CD36 and FABP4 gene expression in MSCs; set-up: dose or concentration left out as unconfirmed; conditions: MRL-299, data not shown
[19] = target: PPARd (Homo sapiens, UniProt Q03181); assay: Receptor reporter assay selectivity panel: PPARd
Sequence of PPARd (Q03181 171-441 limits assumed): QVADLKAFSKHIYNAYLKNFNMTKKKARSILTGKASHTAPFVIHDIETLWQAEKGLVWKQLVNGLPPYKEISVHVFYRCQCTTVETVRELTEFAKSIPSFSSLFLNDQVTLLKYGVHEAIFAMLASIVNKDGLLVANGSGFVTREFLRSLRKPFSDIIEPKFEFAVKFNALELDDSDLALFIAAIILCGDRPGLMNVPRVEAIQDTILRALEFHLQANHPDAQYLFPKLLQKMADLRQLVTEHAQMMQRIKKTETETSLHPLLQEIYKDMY
Procedure: as §1, §2, §3

[20] = target: AhR (Homo sapiens, UniProt P35869); assay: Receptor reporter assay selectivity panel: AhR
Procedure: as §1, §2, §3

[21] = target: ERb (Homo sapiens, UniProt Q92731); assay: Receptor reporter assay selectivity panel: ERb
Sequence of ERb (Q92731 whole entry): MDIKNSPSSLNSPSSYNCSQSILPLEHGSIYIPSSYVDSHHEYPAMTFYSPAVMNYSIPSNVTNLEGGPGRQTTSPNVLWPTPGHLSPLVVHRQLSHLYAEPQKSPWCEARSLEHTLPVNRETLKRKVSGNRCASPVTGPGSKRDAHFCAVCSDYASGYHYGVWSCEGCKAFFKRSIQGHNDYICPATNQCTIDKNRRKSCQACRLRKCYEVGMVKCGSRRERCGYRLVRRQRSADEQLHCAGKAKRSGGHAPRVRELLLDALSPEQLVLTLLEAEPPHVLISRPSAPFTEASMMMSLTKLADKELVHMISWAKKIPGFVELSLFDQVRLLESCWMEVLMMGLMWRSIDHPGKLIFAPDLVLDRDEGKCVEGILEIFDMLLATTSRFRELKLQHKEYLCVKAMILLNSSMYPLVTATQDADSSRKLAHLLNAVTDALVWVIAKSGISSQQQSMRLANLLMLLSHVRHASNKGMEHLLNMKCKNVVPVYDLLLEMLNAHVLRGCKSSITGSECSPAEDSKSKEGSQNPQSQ
Procedure: as §1, §2, §3

[22] = target: LXRa (Homo sapiens, UniProt Q13133); assay: Receptor reporter assay selectivity panel: LXRa
Sequence of LXRa (Q13133 209-447 limits assumed): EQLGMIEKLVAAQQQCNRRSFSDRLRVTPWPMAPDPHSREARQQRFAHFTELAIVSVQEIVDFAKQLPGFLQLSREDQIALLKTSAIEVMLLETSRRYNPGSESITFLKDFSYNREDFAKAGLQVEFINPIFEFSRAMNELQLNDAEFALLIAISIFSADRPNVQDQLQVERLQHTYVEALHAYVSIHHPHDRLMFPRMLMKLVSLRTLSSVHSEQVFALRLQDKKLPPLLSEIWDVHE
Procedure: as §1, §2, §3

[23] = target: RXRb (Homo sapiens, UniProt P28702); assay: Receptor reporter assay selectivity panel: RXRb
Procedure: as §1, §2, §3

[24] = target: PR (Homo sapiens, UniProt P06401); assay: Receptor reporter assay selectivity panel: PR
Sequence of PR (P06401 whole entry): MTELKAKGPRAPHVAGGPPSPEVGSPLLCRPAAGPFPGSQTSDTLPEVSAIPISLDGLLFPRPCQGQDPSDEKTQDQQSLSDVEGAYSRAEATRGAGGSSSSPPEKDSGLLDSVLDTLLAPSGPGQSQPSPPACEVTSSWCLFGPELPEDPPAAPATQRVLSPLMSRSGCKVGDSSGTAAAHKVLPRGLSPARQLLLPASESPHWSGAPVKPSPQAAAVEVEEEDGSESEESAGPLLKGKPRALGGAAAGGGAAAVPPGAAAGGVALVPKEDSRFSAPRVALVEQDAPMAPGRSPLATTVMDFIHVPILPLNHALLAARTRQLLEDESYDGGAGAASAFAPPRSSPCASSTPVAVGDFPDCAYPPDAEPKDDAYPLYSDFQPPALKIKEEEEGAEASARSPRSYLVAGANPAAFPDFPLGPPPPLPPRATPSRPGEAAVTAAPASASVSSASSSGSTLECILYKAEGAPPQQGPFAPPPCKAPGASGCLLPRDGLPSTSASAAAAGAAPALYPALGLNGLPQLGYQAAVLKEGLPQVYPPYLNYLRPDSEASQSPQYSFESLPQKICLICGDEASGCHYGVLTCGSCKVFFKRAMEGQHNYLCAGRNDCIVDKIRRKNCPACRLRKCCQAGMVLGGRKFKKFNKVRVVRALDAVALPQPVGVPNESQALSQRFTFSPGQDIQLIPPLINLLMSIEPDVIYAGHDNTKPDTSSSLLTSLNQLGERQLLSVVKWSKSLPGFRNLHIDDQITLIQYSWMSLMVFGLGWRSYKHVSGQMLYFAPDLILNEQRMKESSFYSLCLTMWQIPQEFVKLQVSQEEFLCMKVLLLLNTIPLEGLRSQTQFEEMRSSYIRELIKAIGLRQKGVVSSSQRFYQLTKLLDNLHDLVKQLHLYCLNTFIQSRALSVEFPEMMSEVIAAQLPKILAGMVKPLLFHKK
Procedure: as §1, §2, §3

[25] = target: LXRb (Homo sapiens, UniProt P55055); assay: Receptor reporter assay selectivity panel: LXRb
Procedure: as §1, §2, §3

[26] = target: CAR3 (Homo sapiens, UniProt Q14994); assay: Receptor reporter assay selectivity panel: CAR3
Procedure: as §1, §2, §3

[27] = target: CAR1 (Homo sapiens, UniProt Q14994); assay: Receptor reporter assay selectivity panel: CAR1
Procedure: as §1, §2, §3

[28] = target: RXRa (Homo sapiens, UniProt P19793); assay: Receptor reporter assay selectivity panel: RXRa
Procedure: as §1, §2, §3

[29] = target: GR (Homo sapiens, UniProt P04150); assay: Receptor reporter assay selectivity panel: GR
Sequence of GR (P04150 whole entry): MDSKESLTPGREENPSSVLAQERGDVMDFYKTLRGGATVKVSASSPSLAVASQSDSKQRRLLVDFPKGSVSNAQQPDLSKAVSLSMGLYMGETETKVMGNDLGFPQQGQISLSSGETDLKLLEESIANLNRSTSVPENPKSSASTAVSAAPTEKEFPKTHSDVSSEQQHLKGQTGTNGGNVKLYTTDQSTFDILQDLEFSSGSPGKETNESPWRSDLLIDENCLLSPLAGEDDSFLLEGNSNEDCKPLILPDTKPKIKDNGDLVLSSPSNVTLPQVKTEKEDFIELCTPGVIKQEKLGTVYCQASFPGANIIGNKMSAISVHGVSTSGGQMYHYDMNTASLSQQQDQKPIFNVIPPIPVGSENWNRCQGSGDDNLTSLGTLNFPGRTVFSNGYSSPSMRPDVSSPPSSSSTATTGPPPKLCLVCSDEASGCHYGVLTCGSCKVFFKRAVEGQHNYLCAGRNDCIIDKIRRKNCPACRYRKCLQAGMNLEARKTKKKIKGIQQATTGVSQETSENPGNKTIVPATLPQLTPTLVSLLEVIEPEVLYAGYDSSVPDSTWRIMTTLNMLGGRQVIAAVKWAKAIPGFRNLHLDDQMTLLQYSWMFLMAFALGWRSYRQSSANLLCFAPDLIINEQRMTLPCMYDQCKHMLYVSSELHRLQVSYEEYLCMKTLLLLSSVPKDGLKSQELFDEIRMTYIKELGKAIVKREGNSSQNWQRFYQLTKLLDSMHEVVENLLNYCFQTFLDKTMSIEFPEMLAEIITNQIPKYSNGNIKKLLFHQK
Procedure: as §1, §2, §3

[30] = target: AR (Homo sapiens, UniProt P10275); assay: Receptor reporter assay selectivity panel (Indigo Bioscience): AR
Sequence of AR (P10275 whole entry): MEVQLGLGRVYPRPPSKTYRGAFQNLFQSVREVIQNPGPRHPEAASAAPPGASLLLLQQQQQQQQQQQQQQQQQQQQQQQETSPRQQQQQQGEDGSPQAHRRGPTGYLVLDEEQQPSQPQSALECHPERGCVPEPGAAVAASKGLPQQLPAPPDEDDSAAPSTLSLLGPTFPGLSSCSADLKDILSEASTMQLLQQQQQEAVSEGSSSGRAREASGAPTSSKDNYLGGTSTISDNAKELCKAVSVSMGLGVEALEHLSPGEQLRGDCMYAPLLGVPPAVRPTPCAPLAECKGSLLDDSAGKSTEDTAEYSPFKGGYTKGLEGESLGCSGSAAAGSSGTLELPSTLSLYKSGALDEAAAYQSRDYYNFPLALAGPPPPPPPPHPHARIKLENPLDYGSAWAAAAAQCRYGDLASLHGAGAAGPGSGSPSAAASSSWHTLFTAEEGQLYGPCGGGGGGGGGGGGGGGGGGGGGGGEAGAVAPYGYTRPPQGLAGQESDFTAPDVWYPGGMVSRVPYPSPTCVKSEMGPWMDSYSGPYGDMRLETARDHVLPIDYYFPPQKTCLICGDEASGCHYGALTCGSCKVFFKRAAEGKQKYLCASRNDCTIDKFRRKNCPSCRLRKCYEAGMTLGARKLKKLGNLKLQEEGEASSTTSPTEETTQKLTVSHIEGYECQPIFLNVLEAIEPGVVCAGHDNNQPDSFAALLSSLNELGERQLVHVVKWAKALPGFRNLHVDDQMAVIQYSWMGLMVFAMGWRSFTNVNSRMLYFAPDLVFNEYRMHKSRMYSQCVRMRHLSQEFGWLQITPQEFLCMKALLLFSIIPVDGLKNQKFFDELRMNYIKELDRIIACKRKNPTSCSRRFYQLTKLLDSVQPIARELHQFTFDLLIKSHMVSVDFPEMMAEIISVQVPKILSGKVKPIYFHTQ
Procedure: as §1, §2, §3

[31] = target: RARa (Homo sapiens, UniProt P10276); assay: Receptor reporter assay selectivity panel: RARa
Procedure: as §1, §2, §3

[32] = target: T3, PXR (Homo sapiens, UniProt O75469); assay: Receptor reporter assay selectivity panel: PXR
T3 sequence (O75469 146-434 limits assumed): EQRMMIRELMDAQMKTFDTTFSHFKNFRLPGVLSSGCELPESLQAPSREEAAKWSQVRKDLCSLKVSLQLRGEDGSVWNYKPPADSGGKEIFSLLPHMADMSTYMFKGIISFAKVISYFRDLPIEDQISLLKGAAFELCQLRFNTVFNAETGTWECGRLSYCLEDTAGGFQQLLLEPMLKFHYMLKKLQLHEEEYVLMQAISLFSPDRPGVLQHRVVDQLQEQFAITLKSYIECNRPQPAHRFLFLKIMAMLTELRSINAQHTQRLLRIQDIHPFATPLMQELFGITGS
Procedure: as §1, §2, §3

CC(C)CCC[C@@H](C)[C@H]1CC[C@H]2[C@@H]3CC=C4C[C@@H](O)CC[C@]4(C)[C@H]3CC[C@]12C [Cholesterol, cholesterol, reference compound] was tested, and the “effect on interaction of RORγt-LBD with cofactor peptide” value [1] was “weak activator”.

In the case of O=C(Nc1ccccc1)c1cc([N+](=O)[O-])ccc1Cl [GW9662, reference compound], the IC50 ([2]; human MSCs under adipogenic conditions, data not shown) is reported as 5.4 µM and the IC50 ([3]; human MSCs, data not shown) is reported as 1 µM.

O=C(O)c1ccc(-c2nn(C(=O)c3ccccc3)c3ccccc23)cc1 [MRL-003] was tested, and the “IL17a mRNA levels” value [4] was “did not reduce” and the IC50 ([1]; read-out: IC50, inhibition of coactivator binding (cofactor peptide recruitment)) was 0.28 ± 0.117 µM.

With O=C(O)c1ccc(-c2nn(C(=O)c3ccccc3C(F)(F)F)c3ccccc23)cc1 [MRL-058] the “IL17a mRNA levels” value [4] was “significantly reduced”.

O=C(O)c1ccc(-c2nn(C(=O)c3c(Cl)cccc3C(F)(F)F)c3cccc(F)c23)c(F)c1 [MRL-299] gave an IC50 [5] of 0.0094 ± 0.0052 µM, an IC50 ([2]; Homo sapiens, Mesenchymal stem cells) of ~50 µM and an EC50 [6] of 0.364 µM. For the same compound, the IC50 [6] was 3.11 µM, the “agonist maximum, % of ATRA max” value ([6]; RARg, relative to ATRA control) was 20% and the IC50 ([3]; Homo sapiens) was ~30 µM. The EC50 [7] was > 30 µM, the EC50 [8] was > 30 µM and the IC50 [8] was 4.49 µM. For the same compound, the EC50 [9] was > 30 µM, the IC50 [9] was > 30 µM and the EC50 [10] was > 30 µM. For the same compound, the IC50 [10] was 13.6 µM, the EC50 [11] was > 30 µM and the IC50 [11] was 20 µM. For the same compound, the EC50 [12] was > 30 µM, the IC50 [12] was 12.3 µM and the EC50 [13] was > 30 µM. For the same compound, the IC50 [13] was 19.1 µM, the EC50 [14] was > 30 µM and the IC50 [14] was > 30 µM. The EC50 [15] was > 30 µM, the IC50 [15] was 5.73 µM and the EC50 [16] was 0.686 µM. The IC50 [16] was 0.517 µM, the EC50 [17] was > 30 µM and the “induction of CD36 gene expression” value [18] was “no induction”. For the same compound, the “induction of FABP4 gene expression” value [18] was “no induction”, the EC50 [19] was > 30 µM and the IC50 [19] was 28 µM. The EC50 [20] was > 30 µM, the EC50 [21] was > 30 µM and the IC50 [21] was 10.8 µM. For the same compound, the EC50 [22] was > 30 µM, the IC50 [22] was 23.2 µM and the EC50 [23] was > 30 µM. The IC50 [23] was 28 µM, the EC50 [24] was > 30 µM and the IC50 [24] was > 30 µM. The EC50 [25] was > 30 µM, the IC50 [25] was 21.5 µM and the EC50 [26] was > 30 µM. For the same compound, the IC50 [27] was 16.7 µM, the EC50 [28] was > 30 µM and the IC50 [28] was 7.42 µM. The EC50 [29] was > 30 µM, the IC50 [29] was 18.5 µM and the EC50 [30] was > 30 µM. For the same compound, the IC50 [30] was 12 µM, the EC50 [31] was > 30 µM and the EC50 [32] was 4.62 µM. For the same compound, the IC50 [32] was > 30 µM and the “agonist maximum, % of rifampicin max” value ([32]; PXR, relative to rifampicin control) was 63%.

In the case of O=C(O)c1ccc(-c2nn(C(=O)c3c(Cl)cccc3C(F)(F)F)c3ccccc23)cc1 [MRL-871], the IC50 [5] is reported as 0.0396 ± 0.018 µM and the “IL17a mRNA levels” value [4] is reported as “significantly reduced”.

For CN(CCOc1ccc(CC2SC(=O)NC2=O)cc1)c1ccccn1 (stereo not drawn) [Rosiglitazone, rosiglitazone, reference compound], the “induction of CD36 gene expression” value [18] was 3 fold and the “induction of FABP4 gene expression” value [18] was 2 fold.
